Patent US8309577B2, “Quinuclidine compounds as α-7 nicotinic acetylcholine receptor ligands” (Bristol-Myers Squibb Company, priority 2008, dated 2012)
pEC50: −log10 of the molar value. Where two headings read alike, the source gives them in different places.

Target: T1, α-7 nicotinic acetylcholine receptor channel expressed in HEK 293 cells (Rattus norvegicus, UniProt Q05941)
T1 construct: expressed in transfected cells
Test: Ca2+-sensitive fluorescence-based FLIPR assay, α7 nicotinic ACh receptor channel function (agonist)
Type: cell-based
Conditions: for EC50: Table 1, HEK 293 cells, agonist Ca2+ flux
Method: I) α7 Nicotinic Acetycholine Receptor Binding. Membranes were prepared for binding using HEK293 cells stably expressing the rat α7 nicotinic acetycholine receptor (rat α7 nAChR). Cells were homogenized at 4° C. in hypotonic lysis buffer consisting of 10 mM Tris (pH 7.4), 5 mM EDTA and protease inhibitors and centrifuged at 32000×g for 20 minutes. The pellet was washed once in membrane wash buffer consisting of 50 mM Tris (pH 7.4), 1 mM EDTA and protease inhibitors and centrifuged at 32000×g for 20 minutes. This pellet was then resuspended in assay buffer consisting 50 mM KH2PO4 (pH 7.4 at 25° C.), 1 mM EDTA, 0.005% Triton-X 100 and 0.1% (v/v) Sigma Protease Inhibitor Cocktail. Aliquots were then frozen in dry ice/ethanol and kept at −80° C. until the day of the assay. II) A Ca^2+-Sensitive, Fluorescence-Based Assay α-7 for Nicotinic Acetylcholine Receptor Channel Function In Mammalian Cells (“FLIPR”). Summary: Lead compounds are evaluated for agonist activity at […], α3β4, […], and α1β1δ1ε sub-types of nicotinic ACh receptor ion channels expressed in mammalian HEK 293 cells. Agonist potency and efficacy values are determined from kinetic fluorescence Ca^2+ influx measurements made using a 384 well FLIPR (Fluorescence Image Plate Reader). […] In this assay, channel expressing HEK cell lines seeded in 384 well assay plates are loaded with a membrane permeant fluorescent Ca^2+ indicator dye, whose 510 nm green emission signal increases in response to elevation of intracellular Ca^2+ concentration. The basal fluorescence from the cells is monitored in real time, followed by the acute addition of test compounds.
Materials and Methods: Reagents: The acetomethoxy (AM) ester of the Ca^2+ indicator dye Fluo-4 was obtained from InVitrogen, (Carlsbad, Calif.). Acetylcholine and all buffer constituents were purchased from Sigma Chemical Company, St. Louis, Mo. G418 and Minimal Essential Medium were purchased from InVitrogen Life Technologies, Carlsbad, Calif. Fetal bovine serum was purchased from (InVitrogen, Carlsbad, Calif.).
Cell Culture: HEK-293 cells were grown in Minimal Essential Medium containing 10% (v/v) fetal bovine serum at 37° C. in a 5% CO2 incubator. HEK-293 cells stably expressing the ion channels were grown in the same medium with the addition of 500 μg/ml G418.
Ca^2+ flux assays of Ca^2+ channels expressed in HEK-293 cells: HEK-293 cells expressing the ion channels of interest were plated in 384 well, black-walled, clear-bottomed, poly-D-lysine coated plates at a density of ˜20,000 cells/well in 20 μl of Minimal Essential Medium containing 10% (v/v) fetal bovine serum and incubated for 2 days at 29° C. in a 5% CO2 incubator. Prior to assay, cells were loaded with the Fluo-4 AM ester. […] Dye loading was allowed to proceed for 90 minutes at room temperature at which time the dye loading solution was removed and replaced with 40 μl/well of Hanks buffer. Cells loaded with dye were loaded onto a FLIPR384 (Molecular Devices, Sunnyvale, Calif.). Fluo-4 dye was excited using the 488 nm line of an argon laser. Emission was filtered using a 540+/−30 nm bandpass filter. For evaluation of the effects of test compounds using the Ca^2+ flux assay, compounds to be tested were provided in assay ready plates. For nicotinic receptor ion channel expressing cells, the assay was initiated by the addition of 20 μl/well of Hanks buffer containing test compounds. For all assays, data were collected at 1 Hz for 10 seconds (baseline), at which time the compound containing stimulus buffers are added, and further measurements collected at 0.33 Hz for 3 min.
Data Analysis: The statistical robustness of the nicotinic receptor Ca^2+ flux assays is determined from blanks and totals wells. […] The raw fluorescence units data files generated on the FLIPR plate reader are automatically exported and processed by in-house data analysis tools.

[1] = FLIPR α7 activity rating (EC50, nM)

T1 sequence (Q05941 23-502): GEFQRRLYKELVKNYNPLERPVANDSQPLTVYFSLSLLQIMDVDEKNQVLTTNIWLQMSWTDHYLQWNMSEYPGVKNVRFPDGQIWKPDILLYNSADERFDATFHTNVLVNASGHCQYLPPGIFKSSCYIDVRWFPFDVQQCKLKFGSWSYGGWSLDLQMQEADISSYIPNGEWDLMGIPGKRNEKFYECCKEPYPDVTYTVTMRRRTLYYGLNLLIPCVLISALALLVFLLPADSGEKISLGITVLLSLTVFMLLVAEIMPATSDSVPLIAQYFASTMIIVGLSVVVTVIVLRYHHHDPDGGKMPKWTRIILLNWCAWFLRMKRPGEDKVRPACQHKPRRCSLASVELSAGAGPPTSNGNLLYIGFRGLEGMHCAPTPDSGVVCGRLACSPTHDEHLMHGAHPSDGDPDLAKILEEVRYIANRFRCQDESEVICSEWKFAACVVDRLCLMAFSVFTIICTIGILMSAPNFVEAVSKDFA

| SMILES | EC50 [1] [nM] | pEC50 | EC50 (FLIPR α7 (EC50, nM)) [nM] |
| --- | --- | --- | --- |
| c1ccc2sc(NC3=NCC4(CN5CCC4CC5)O3)nc2c1 (racemic) [Example 1, N-(benzo[d]thiazol-2-yl)-4H-1′-azaspiro[oxazole-5,3′-bicyclo[2.2.2]octan]-2-amine] | < 100 |  |  |
| COc1ccc2nc(NC3=NCC4(CN5CCC4CC5)O3)sc2n1 (racemic) [Example 2, N-(5-Methoxythiazolo[5,4-b]pyridin-2-yl)-4H-1′-azaspiro[oxazole-5,3′-bicyclo[2.2.2]octan]-2-amine] | 100 to 1000 |  |  |
| Clc1cccc2sc(NC3=NCC4(CN5CCC4CC5)O3)nc12 (racemic) [Example 7, N-(4-chlorobenzo[d]thiazol-2-yl)-4H-1′-azaspiro[oxazole-5,3′-bicyclo[2.2.2]octan]-2-amine] | 100 to 1000 |  |  |
| Oc1ccc2nc(NC3=NCC4(CN5CCC4CC5)O3)sc2c1 (racemic) [Example 13, 2-(4H-1′-Azaspiro[oxazole-5,3′-bicyclo[2.2.2]octane]-2-ylamino)benzo[d]thiazol-6-ol] | < 100 |  |  |
| C1CCc2sc(NC3=NCC4(CN5CCC4CC5)O3)nc2C1 (racemic) [Example 14, N-(4,5,6,7-Tetrahydrobenzo[d]thiazol-2-yl)-4H-1′-azaspiro[oxazole-5,3′-bicyclo[2.2.2]octan]-2-amine] | 100 to 1000 |  |  |
| CC(C)c1csc(NC2=NCC3(CN4CCC3CC4)O2)n1 (racemic) [Example 15, N-(4-Isopropylthiazol-2-yl)-4H-1′-azaspiro[oxazole-5,3′-bicyclo[2.2.2]octan]-2-amine] | 100 to 1000 |  |  |
| c1csc(NC2=NCC3(CN4CCC3CC4)O2)n1 (racemic) [Example 16, N-(Thiazol-2-yl)-4H-1′-azaspiro[oxazole-5,3′-bicyclo[2.2.2]octan]-2-amine] | 100 to 1000 |  |  |
| COc1ccc(-c2nc(NC3=NCC4(CN5CCC4CC5)O3)sc2C)cc1 (racemic) [Example 17, N-(4-(4-Methoxyphenyl)-5-methylthiazol-2-yl)-4H-1′-azaspiro[oxazole-5,3′-bicyclo[2.2.2]octan]-2-amine] | 100 to 1000 |  |  |
| c1cncc(/N=C2\NCC3(CN4CCC3CC4)O2)c1 (racemic) [Example 18, (E)-N-(1′-Azaspiro[oxazolidine-5,3′-bicyclo[2.2.2]octane]-2-ylidene)pyridin-3-amine] | 1000 to 100000 | 5.41 |  |
| COc1ccc(-c2csc(NC3=NCC4(CN5CCC4CC5)O3)n2)cc1 (racemic) [Example 20, N-(4-(4-Methoxyphenyl)thiazol-2-yl)-4H-1′-azaspiro[oxazole-5,3′-bicyclo[2.2.2]octan]-2-amine] | 100 to 1000 |  |  |
| Cc1cc(C)c2c(NC3=NCC4(CN5CCC4CC5)O3)nsc2n1 (racemic) [Example 114] | 100 to 1000 |  |  |
| c1cnnc(NC2=NCC3(CN4CCC3CC4)O2)c1 (racemic) [Example 115] | 1000 to 100000 |  |  |
| COc1ccc(NC2=NCC3(CN4CCC3CC4)O2)nn1 (racemic) [Example 116] | 1000 to 100000 |  |  |
| COc1cncc(NC2=NCC3(CN4CCC3CC4)O2)n1 (racemic) [Example 118] | 1000 to 100000 |  |  |
| COc1nccnc1NC1=NCC2(CN3CCC2CC3)O1 (racemic) [Example 120] | 100 to 1000 |  | 875 |
| CC(C)(C)c1cc(NC2=NCC3(CN4CCC3CC4)O2)ncn1 (racemic) [Example 121] | 1000 to 100000 |  |  |
| Cc1cc(NC2=NCC3(CN4CCC3CC4)O2)nc(C)n1 (racemic) [Example 123] | 1000 to 100000 |  |  |
| Cc1ccc(NC2=NCC3(CN4CCC3CC4)O2)nn1 (racemic) [Example 124] | 1000 to 100000 |  |  |
| c1ccc2sc(NC3=NCC4(CN5CCC4CC5)O3)nc2c1 (single isomer, unassigned) [Example 1a] | 1000 to 100000 |  |  |

| SMILES | EC50 [1] [nM] | pEC50 | EC50 (FLIPR α7 (EC50, nM)) [nM] |
| --- | --- | --- | --- |
| c1ccc2sc(NC3=NCC4(CN5CCC4CC5)O3)nc2c1 (single isomer, unassigned) [Example 1b] | < 100 |  |  |
| COc1ccc2nc(NC3=NCC4(CN5CCC4CC5)O3)sc2n1 (single isomer, unassigned) [Example 2a] | 1000 to 100000 |  |  |
| COc1ccc2nc(NC3=NCC4(CN5CCC4CC5)O3)sc2n1 (single isomer, unassigned) [Example 2b] | 100 to 1000 |  |  |
| c1ccc(-c2cnc(NC3=NCC4(CN5CCC4CC5)O3)s2)cc1 (single isomer, unassigned) [Example 4a] | 1000 to 100000 |  |  |
| c1ccc(-c2cnc(NC3=NCC4(CN5CCC4CC5)O3)s2)cc1 (single isomer, unassigned) [Example 4b] | 100 to 1000 |  | 230 |
| COc1ccc2nc(NC3=NCC4(CN5CCC4CC5)O3)sc2c1 (single isomer, unassigned) [Example 5a] | 1000 to 100000 |  |  |
| COc1ccc2nc(NC3=NCC4(CN5CCC4CC5)O3)sc2c1 (single isomer, unassigned) [Example 5b] | < 100 |  |  |
| Cc1cccc2sc(NC3=NCC4(CN5CCC4CC5)O3)nc12 (single isomer, unassigned) [Example 6a] | 1000 to 100000 |  | 4340 |
| Cc1cccc2sc(NC3=NCC4(CN5CCC4CC5)O3)nc12 (single isomer, unassigned) [Example 6b] | < 100 |  |  |
| Clc1cccc2sc(NC3=NCC4(CN5CCC4CC5)O3)nc12 (single isomer, unassigned) [Example 7a] | 1000 to 100000 |  |  |
| Clc1cccc2sc(NC3=NCC4(CN5CCC4CC5)O3)nc12 (single isomer, unassigned) [Example 7b] | < 100 |  |  |
| c1ccc2[nH]c(NC3=NCC4(CN5CCC4CC5)O3)nc2c1 (single isomer, unassigned) [Example 8a, N-(1H-benzo[d]imidazol-2-yl)-4H-1′-azaspiro[oxazole-5,3′-bicyclo[2.2.2]octan]-2-amine] | 100 to 1000 |  | 120 |
| c1ccc2[nH]c(NC3=NCC4(CN5CCC4CC5)O3)nc2c1 (single isomer, unassigned) [Example 8b, N-(1H-benzo[d]imidazol-2-yl)-4H-1′-azaspiro[oxazole-5,3′-bicyclo[2.2.2]octan]-2-amine] | 1000 to 100000 |  |  |
| Clc1ccc2nc(NC3=NCC4(CN5CCC4CC5)O3)sc2c1 (single isomer, unassigned) [Example 9a, N-(6-Chlorobenzo[d]thiazol-2-yl)-4H-1′-azaspiro[oxazole-5,3′-bicyclo[2.2.2]octan]-2-amine] | 1000 to 100000 |  | 7310 |
| Clc1ccc2nc(NC3=NCC4(CN5CCC4CC5)O3)sc2c1 (single isomer, unassigned) [Example 9b, N-(6-Chlorobenzo[d]thiazol-2-yl)-4H-1′-azaspiro[oxazole-5,3′-bicyclo[2.2.2]octan]-2-amine] | < 100 |  |  |
| Cn1c(NC2=NCC3(CN4CCC3CC4)O2)nc2ccccc21 (single isomer, unassigned) [Example 10a, N-(1-methyl-1H-benzo[d]imidazol-2-yl)-4H-1′-azaspiro[oxazole-5,3′-bicyclo[2.2.2]octan]-2-amine] | 100 to 1000 |  |  |
| CCOc1ccc2nc(NC3=NCC4(CN5CCC4CC5)O3)sc2c1 (single isomer, unassigned) [Example 11b, N-(6-Ethoxybenzo[d]thiazol-2-yl)-4H-1′-azaspiro[oxazole-5,3′-bicyclo[2.2.2]octan]-2-amine] | 100 to 1000 |  | 213 |
| Cc1ccc2nc(NC3=NCC4(CN5CCC4CC5)O3)sc2c1 (single isomer, unassigned) [Example 12a, N-(6-Methylbenzo[d]thiazol-2-yl)-4H-1′-azaspiro[oxazole-5,3′-bicyclo[2.2.2]octan]-2-amine] | 100 to 1000 |  |  |
| Cc1ccc2nc(NC3=NCC4(CN5CCC4CC5)O3)sc2c1 (single isomer, unassigned) [Example 12b, N-(6-Methylbenzo[d]thiazol-2-yl)-4H-1′-azaspiro[oxazole-5,3′-bicyclo[2.2.2]octan]-2-amine] | 1000 to 100000 |  |  |
